Values of other authors, collected in US20050214675A1, “Positive-type photosensitive composition” (FUJI PHOTO FILM CO., LTD., priority 2004, published 2005).
Like-named read-outs stand apart in the source and are kept apart here.

Settings: for Hammett value: cation of the sulfonium salt used in the plate, third embodiment Tables 1 to 4; for σ (sum of Hammett values of substituents on the aryl skeletons of the cation): o-position treated as p-position
[1] = compound list of first embodiment
[2] = compound list of second embodiment

Row | Hammett value | σ (sum of Hammett values of substituents on the aryl skeletons of the cation) [1] | σ (sum of Hammett values of substituents on the aryl skeletons of the cation) [2] | Structure (SMILES)
1 | 0.69 |  |  | COc1cc(O)c(C(=O)c2ccccc2)cc1S(=O)(=O)O [(77)]
2 |  | 0.26 | 0.26 | CC(C)(C)c1ccc([S+](c2ccc(Cl)cc2)c2ccc(Cl)cc2)cc1 [(85)]
3 | 0.69 |  |  | O=C(O)c1cc(C(=O)O)cc(S(=O)(=O)O)c1 [(76)]
4 |  | −0.848 | −0.848 | Cc1ccc([S+](c2ccc(C)cc2)c2cc(C)c(O)c(C)c2)cc1 [(89)]
5 |  | −0.804 | −0.804 | COc1ccc([S+](c2ccc(OC)cc2)c2ccc(OC)cc2)cc1 [(88)]
6 |  | 0.186 | 0.186 | Fc1ccc([S+](c2ccc(F)cc2)c2ccc(F)cc2)cc1 [(87)]
7 | 0.69 |  |  | O=S(=O)(O)c1ccc(O)cc1 [(68)]
8 |  | −0.59 | −0.59 | CC(C)(C)c1ccc([S+](c2ccc(C(C)(C)C)cc2)c2ccc(C(C)(C)C)cc2)cc1 [(86)]
9 |  | 0.29 | 0.29 | Cc1ccc([S+](c2ccc(Cl)cc2)c2ccc(Cl)cc2)cc1 [(84)]
10 | 0.69 |  |  | COC(=O)c1cc(C(=O)OC)cc(S(=O)(=O)O)c1 [(75)]
11 | 0 |  |  | O=C(O)c1c2ccccc2cc2ccccc12 [(28)]
12 | 0.69 |  |  | O=Cc1ccccc1S(=O)(=O)O [(72)]
